The source of these data is patent US9884126B2, “Anti-wall teichoic antibodies and conjugates” (priority 2013, dated 2018).

One data set concerns MRSA (USA300). The data set is described as follows: Intravenous infection model in CB17.SCID mice reconstituted with human IgG (SCID:huIgG). Format: in vivo. The method, then: To confirm that the AAC would be effective in the presence of competing human antibodies in vivo, the in vivo infection model was modified to generate mice that express normal levels of human IgG in the serum. […] Four days after infection the bacterial load in the kidneys (FIG. 10C) was assessed.
CB17.SCID mice were reconstituted with human IgG using a dosing regimen optimized to yield constant levels of at least 10 mg/mL of human IgG in serum.
Efficacy of the AAC was compared with that of treatment with vancomycin, the current standard of care treatment for MRSA infections. […]
CB17.SCID mice were reconstituted with human IgG using a dosing regimen optimized to yield constant levels of at least 10 mg/mL of human IgG in serum and infected with 2×10^7 CFU of USA300 by intravenous injection. […] The mice were sacrificed on day 4 post infection, and the total number of surviving bacteria in kidneys (2 kidneys pooled, FIG. 21) and heart (FIG. 22) was determined by plating.
7 week old female mice were used for all in vivo experiments and infections were carried out by intravenous injection into the tail vein. […] The total number of bacteria recovered per mouse (2 kidneys) was determined by plating serial dilutions of the tissue homogenate in PBS 0.05% Tween on Tryptic Soy Agar with 5% defibrinated sheep blood.

The test system of data set [1] is MRSA. The note with it: TSB; vancomycin 2 and 20 μg/mL, rifampin 0.02 and 0.2 μg/mL.
The subject of another data set is USA300. The data set is described as follows: Intravenous infection model, pre-treatment in Balb/c mice. In kind it is in vivo. The following applies: antibodies 50 mg/Kg IV 30 minutes prior to infection; vancomycin 110 mg/Kg twice daily; day 4. The method, then:
Balb/c mice were given a single dose of vehicle control (PBS) or 50 mg/Kg of antibodies by intravenous injection 30 minutes prior to infection with 2×10^7 CFU of USA300. […] Control mice were given twice daily treatments with 110 mg/Kg of vancomycin by intraperitoneal injection (Vanco). All mice were sacrificed on day 4 post-infection, and the total number of surviving bacteria in kidneys (2 kidneys pooled) was determined by plating.
7 week old female mice were used for all in vivo experiments and infections were carried out by intravenous injection into the tail vein. A/J mice (Jackson Lab) were infected with a dose of 2×10^6 CFU. Balb/c mice (Charles River Laboratories, Hollister, Calif.) were infected with a dose of 2×10^7 CFU. For studies examining the role of competing human IgG (SCID IVIG model), CB17.SCID mice (Charles River Laboratories, Hollister, Calif.) were reconstituted with GammaGard S/D IGIV Immune Globulin (ASD Healthcare, Brooks KY) using a dosing regimen optimized to achieve constant serum levels of >10 mg/mL of human IgG. […] The total number of bacteria recovered per mouse (2 kidneys) was determined by plating serial dilutions of the tissue homogenate in PBS 0.05% Tween on Tryptic Soy Agar with 5% defibrinated sheep blood.

In data set [2] the test system is MRSA (NRS384 strain of USA300). In words: MIC determination for extracellular bacteria. Format: cell-based. The following applies: Staphylococcus aureus, read-out: Extracellular MRSA MIC. Here is the method:
Dilutions of the antibiotic were made in quadruplicate in 96 well culture dishes. MRSA (NRS384 strain of USA300) was taken from an exponentially growing culture and diluted to 1×10^4 CFU/mL. Bacteria was cultured in the presence of antibiotic for 18-24 hours with shaking at 37° C. and bacterial growth was determined by reading the Optical Density (OD) at […]. The MIC was determined to be the dose of antibiotic that inhibited bacterial growth by >90%.

Data set [3] concerns MRSA. In words: Transfer of infection from peritoneal cells to MG63 osteoblasts in the presence of vancomycin. Format: cell-based, Staphylococcus aureus. The following applies: 5 μg/mL of vancomycin. The method, then: 6-8 week old female A/J mice (JAX™ Mice, Jackson Laboratories) were infected with 1×10^8 CFU of the NRS384 strain of USA300 by peritoneal injection. The peritoneal wash was harvested 1 day post infection, and the infected peritoneal cells were treated with 50 μg/mL of lysostaphin diluted in Hepes Buffer supplemented with 0.1% BSA (HB buffer) for 30 minutes at 37° C. Peritoneal cells were then washed 2× in ice cold HB buffer. The peritoneal cells were diluted to 1×10^6 cells/mL in RPMI 1640 tissue culture media supplemented with 10 mM Hepes and 10% Fetal Calf Serum, and 5 μg/mL vancomycin. Free MRSA from the primary infection was stored overnight at 4° C. in Phosphate Buffered Saline Solution as a control for extracellular bacteria that were not subject to neutrophil killing.
MG63 osteoblast cell line was obtained from ATCC (CRL-1427) and maintained in RPMI 1640 tissue culture media supplemented with 10 mM Hepes and 10% Fetal Calf Serum (RPMI-10). […] The actual titer for all infections was determined by plating serial dilutions of the bacteria on Tryptic Soy Agar with 5% defibrinated sheep blood.
To generate a pool of intracellular S. aureus, A/J mice were infected with MRSA and infected peritoneal cells were taken 1 day post infection. […] The total number of surviving intracellular bacteria in each well was determined by plating cell lysates on agar plates. […]

In data set [4] the test system is MRSA (NRS384 strain of USA300). The data set is described as follows: MIC determination / killing of intracellular bacteria in mouse peritoneal macrophages. In kind it is cell-based, Staphylococcus aureus.

≈ marks a conversion by molar mass, not a printed value.

For `CN[C@H](CC(C)C)C(=O)N[C@H]1C(=O)N[C@@H](CC(N)=O)C(=O)N[C@H]2C(=O)N[C@H]3C(=O)N[C@H](C(=O)N[C@H](C(=O)O)c4cc(O)cc(O)c4-c4cc3ccc4O)[C@H](O)c3ccc(c(Cl)c3)Oc3cc2cc(c3O[C@@H]2O[C@H](CO)[C@@H](O)[C@H](O)[C@H]2O[C@H]2C[C@](C)(N)[C@H](O)[C@H](C)O2)Oc2ccc(cc2Cl)[C@H]1O` [Vancomycin], the “efficacy in SCID:huIgG mice (kidney bacteria day 4)” value in the data set on MRSA (USA300) (AAC single dose 50 mg/Kg day 1, vancomycin 100 mg/Kg twice daily) is “failed to clear the infection”. Also, in the data set with MRSA (USA300) (twice-daily 100 mg/Kg, initiated more than 1 day post infection), the “reduction of bacterial loads” value is reported as “about 50 fold”. In addition, in the data set with MRSA [1], the “bacteria remaining viable during the first two hours of treatment” value is given as 90%. In addition, the “loss in viable bacteria by 5 hours” value in the data set with MRSA [1] came out at 100 fold. Moreover, in the data set with USA300, the “effect of pre-treatment on bacterial loads in kidneys” value is “cleared the infection in all of the mice tested”. Further, the MIC in data set [2] was 1 µg/mL (≈ 0.69 µM); in data set [4] (Staphylococcus aureus, 24 h, MRSA inside mouse peritoneal macrophages, […]), over 100 µg/mL. Besides, the “intracellular bacteria recovered from MG63 wells 1 day after infection” value in the data set with MRSA [3] (infected with 3×10^4 intracellular bacteria) is recorded as 8,750 intracellular bacteria. Moreover, the “intracellular bacteria recovered from MG63 wells 1 day post infection” value in the data set with MRSA [3] (infected with a similar dose of free MRSA) was determined as 375 intracellular bacteria. The “killing of intracellular MRSA sequestered inside macrophages” value in data set [4] (doses including clinically achieveable serum levels) is on record as “failed to kill”.
